Test results taken from US8569450B2, “CD3 epsilon immunogens and antibodies” (Health Research Inc., priority 2010, dated 2013).

System: anti-human detection antibody
Experiment: CD3ε peptide ELISA, alkaline phosphatase based, peptides coated on Costar high binding plates
Set-up: species or system chicken
Details: single peptide coated on plate, plate blank subtracted, both peptides tested under the same conditions
Source text: The capture antibody of the CDR assay was produce by inoculation with 2 peptides. The sequence of these two peptides is AKAKPVTRGAGA (SEQ ID NO: 1) and LYSGLNQRRI (SEQ ID NO: 2) respectively. To determine the key immune-dominate region of the peptide, 12 variants of original peptide 1 (SEQ ID NO: 1) and 10 variants of original peptide 2 (SEQ ID NO: 2) were made with alanine substitution (or valine when alanine is the original amino acid). These were produced by GenScript, shipped, in solid form, at room temperature, to our lab and were dissolved in 1 ml of 0.05 TBS buffer.
Single peptides were coated on to Costar high binding 96 well plates at a concentration of 10 μg and 2 μg in 0.05 TBS buffer pH 7.4 in quadruplicate and tested in an alkaline phoshotase based ELISA. Plate blanks were subtracted from the optical densities obtained for each peptide. The peptides are compared to the original by percent of original signal. As noted in Table 1 the twelfth substitution was both an alanine at position twelve and a glutamic acid for threonine at position seven. This was an inadvertent oversight by the manufacturer.
The results from using a coating concentration of 2 μg/ml were similar.
The OD for original peptide 1 (SEQ ID NO: 1) was 1.5 and peptide 2 (SEQ ID NO: 2) elicited a signal of 1.0 when tested under the same conditions.

## LYSGLNQRRI (listed as Homo sapiens) [peptide 2, CD3 epsilon immunogen peptide, 10AA]
  OD (optical density) by ELISA: 1.0

## AKAKPVTRGAGA (listed as Homo sapiens) [original peptide 1, CD3 epsilon immunogen peptide, 12AA]
  OD (optical density) by ELISA: 1.5
